12 molecules from patent US7511144B2, “Reverse hydroxamic acid derivatives” (Kaken Pharmaceutical Co., Ltd., priority 2001, dated 2009) can be followed below.

Read-outs that look alike come from different tables or passages of the source. Bounds are passed on as bounds.

Format in all cases: biochemical
Test [1] addresses T1, Human MMP17 (Homo sapiens, UniProt Q9ULZ9).
T1 construct: purchased Calbiochem 475940
T1 sequence (Q9ULZ9 126-300 limits assumed): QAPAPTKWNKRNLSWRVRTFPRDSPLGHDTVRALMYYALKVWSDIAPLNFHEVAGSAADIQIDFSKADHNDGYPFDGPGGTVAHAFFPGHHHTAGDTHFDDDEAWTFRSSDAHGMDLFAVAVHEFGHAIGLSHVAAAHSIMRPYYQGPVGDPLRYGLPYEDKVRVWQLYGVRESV
In words: MMP17 inhibition test. Particulars: concentration required for 50% inhibition of enzyme activity; read-out: IC50 value MMP-17.

Test [2] concerns the target T2, Human MMP9 (Homo sapiens, UniProt P14780).
T2 construct: purchased Calbiochem 444231
In words: MMP9 inhibition experiment. Particulars: read-out: IC50 value MMP-9.
Description: This enzyme solution in amount of 1 μL was diluted to 90 μL with the assay buffer A, which was added to 90 μL of 20 μM fluorescent substrate (Dnp-Pro-Cha-Gly-Cys(Me)-His-Ala-Lys(Nma)-NH2) prepared in the assay buffer B, followed by reaction for 4 hours at 37° C.

Test [3] addresses T3, Human MMP1 (Homo sapiens, UniProt P03956).
T3 construct: purchased Calbiochem 444208
T3 sequence (P03956 100-469): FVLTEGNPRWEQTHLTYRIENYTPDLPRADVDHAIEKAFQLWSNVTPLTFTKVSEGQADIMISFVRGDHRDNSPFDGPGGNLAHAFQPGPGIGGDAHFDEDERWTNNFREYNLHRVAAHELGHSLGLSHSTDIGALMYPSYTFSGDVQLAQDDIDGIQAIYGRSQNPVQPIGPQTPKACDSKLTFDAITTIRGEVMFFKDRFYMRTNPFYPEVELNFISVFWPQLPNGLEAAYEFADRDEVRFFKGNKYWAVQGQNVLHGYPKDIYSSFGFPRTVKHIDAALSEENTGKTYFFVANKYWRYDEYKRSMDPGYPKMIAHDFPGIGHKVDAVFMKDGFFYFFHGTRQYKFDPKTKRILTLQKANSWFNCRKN
Briefly: MMP1 inhibition experiment. To be noted: read-out: IC50 value MMP-1.
Description: This enzyme solution in amount of 10 μL was diluted to 90 μL with the assay buffer A, which was added to 90 μL of 20 μM fluorescent substrate (Dnp-Pro-Cha(β-cyclohexylalanyl)-Gly-Cys(Me)-His-Ala-Lys(Nma)-NH2) prepared in the assay buffer B, followed by reaction for 5 hours at 37° C.

Test [4] concerns the target T4, Human MMP8 (Homo sapiens, UniProt P22894).
T4 construct: purchased Calbiochem 444229
Briefly: MMP8 inhibition experiment. To be noted: concentration required for 50% inhibition of enzyme activity; read-out: IC50 value MMP-8. Here is the method:
MMP inhibition experiment may be carried out using a fluorescent synthetic substrate according to, for example, the methods of Bickett et al. (D. Mark Bickett et al., Anal. Biochem., 1993, 212, 58-64) and Nagase et al. (H. Nagase et al., J. Biol. Chem., 1994, 269, 20952-20957). The methods of inhibition experiments carried out for various MMPs are described below.
Human MMP8 (Calbiochem #444229) in amount of 90 μL (30 ng) was activated by mixing with 10 μL of 10 mM APMA, followed by reaction for 1 hour at 37° C. This enzyme solution in amount of 10 μL was diluted to 90 μL with the assay buffer A, which was added to 90 μL of […] fluorescent substrate (MOCAc-Pro-Leu-Gly-Leu-A2pr(Dnp)-Ala-Arg-NH2, Peptide Institute, Inc., #3163-v) prepared in the assay buffer B, followed by reaction for 5 hours at 37° C.

For test [5], the target named is T5, Human MMP14 (Homo sapiens, UniProt P50281).
T5 construct: purchased Biogenesis or Calbiochem 5980-1461 or 475935
In words: MMP14 inhibition experiment. To be noted: concentration required for 50% inhibition of enzyme activity; read-out: IC50 value MMP-14. The method in brief: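 Fluorescence assay: substrate Dnp-Pro-Cha-Gly-Cys(Me)-His-Ala-Lys(Nma)-NH2 (20 μM before equal-volume mixing) incubated at 37° C for 5 hours with 4 ng human MMP14.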

The target of test [6] is T6, Human MMP2 (Homo sapiens, UniProt P08253).
T6 construct: purchased Calbiochem 444213
T6 sequence (P08253 110-660): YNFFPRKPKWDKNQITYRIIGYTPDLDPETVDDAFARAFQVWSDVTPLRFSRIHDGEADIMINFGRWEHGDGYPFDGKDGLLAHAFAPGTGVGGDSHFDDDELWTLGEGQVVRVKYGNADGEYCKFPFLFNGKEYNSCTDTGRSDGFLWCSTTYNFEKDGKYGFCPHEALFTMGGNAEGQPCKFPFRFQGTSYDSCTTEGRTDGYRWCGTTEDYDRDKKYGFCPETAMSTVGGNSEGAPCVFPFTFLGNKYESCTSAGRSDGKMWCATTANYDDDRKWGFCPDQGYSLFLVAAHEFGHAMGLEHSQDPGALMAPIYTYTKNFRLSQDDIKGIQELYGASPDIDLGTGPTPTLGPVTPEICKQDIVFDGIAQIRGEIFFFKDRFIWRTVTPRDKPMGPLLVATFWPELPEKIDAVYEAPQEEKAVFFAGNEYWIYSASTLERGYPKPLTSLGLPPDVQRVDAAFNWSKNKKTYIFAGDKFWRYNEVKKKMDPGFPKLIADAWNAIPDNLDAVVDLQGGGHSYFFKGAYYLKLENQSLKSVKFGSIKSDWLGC
In words: MMP2 inhibition experiment. Particulars: concentration required for 50% inhibition of enzyme activity; read-out: IC50 value MMP-2.
Description: This enzyme solution in amount of 10 μL was diluted to 90 μL with the assay buffer A, which was added to 90 μL of 20 μM fluorescent substrate (MOCAc((7-methoxycoumarin-4-yl)acetyl)-Pro-Leu-Gly-Leu-A2pr(Dnp)-Ala-Arg-NH2, Peptide Institute, Inc., #3163-v) prepared in the assay buffer B, followed by reaction for 5 hours at 37° C.

The target in test [7] is T7, Human MMP13 (Homo sapiens, UniProt P45452).
T7 construct: purchased Chemicon CC068
In words: MMP13 inhibition experiment. To be noted: concentration required for 50% inhibition of enzyme activity; read-out: IC50 value MMP-13.
Description: Human MMP13 (Chemicon #CC068) in amount of 90 μL (200 ng) was activated by mixing with 10 μL of 10 mM APMA, followed by reaction for 1 hour at 37° C. This enzyme solution in amount of 0.6 μL was diluted to 90 μL with the assay buffer A, which was added to 90 μL of 20 μM fluorescent substrate (Dnp-Pro-Cha-Gly-Cys(Me)-His-Ala-Lys(Nma)-NH2) prepared in the assay buffer B, followed by reaction for 4 hours at 37° C.

The target in test [8] is T8, Human MMP3 (Homo sapiens, UniProt P08254).
T8 construct: purchased Calbiochem 444217
Briefly: MMP3 inhibition experiment. Particulars: concentration required for 50% inhibition of enzyme activity; read-out: IC50 value MMP-3. The method in brief:
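Fluorescence-quenched substrate NFF-3 (MOCAc/Dnp peptide, 20 μM as prepared) cleaved by 5 ng human MMP3 over 5 hours at 37° C, with inhibition measured from substrate fluorescence.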

The target in test [9] is T9, TACE (Homo sapiens, UniProt P78536).
T9 construct: made in house; host or cells: mammalian cells or insect cells
In words: TACE inhibition experiment (in vitro).

[10] abbreviates: concentration required for 50% inhibition of enzyme activity.

T9 sequence (P78536 215-824): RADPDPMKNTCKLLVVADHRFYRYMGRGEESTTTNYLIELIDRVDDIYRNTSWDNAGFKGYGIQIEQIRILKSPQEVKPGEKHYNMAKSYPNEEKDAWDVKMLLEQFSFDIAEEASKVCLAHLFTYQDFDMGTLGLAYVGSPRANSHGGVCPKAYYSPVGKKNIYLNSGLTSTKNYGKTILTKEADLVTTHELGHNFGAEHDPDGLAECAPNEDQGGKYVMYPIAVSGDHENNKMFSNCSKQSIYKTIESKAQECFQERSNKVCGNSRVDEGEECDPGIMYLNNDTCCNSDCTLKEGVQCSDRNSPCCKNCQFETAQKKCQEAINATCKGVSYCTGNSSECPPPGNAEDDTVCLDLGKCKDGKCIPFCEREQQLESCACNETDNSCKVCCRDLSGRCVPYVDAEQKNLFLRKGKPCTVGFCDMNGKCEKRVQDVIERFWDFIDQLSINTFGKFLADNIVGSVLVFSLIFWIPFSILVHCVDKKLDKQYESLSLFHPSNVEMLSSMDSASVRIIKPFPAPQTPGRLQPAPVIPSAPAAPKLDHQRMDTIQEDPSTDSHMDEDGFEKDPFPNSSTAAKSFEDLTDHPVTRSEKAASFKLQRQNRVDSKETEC
T4 sequence (P22894 101-467): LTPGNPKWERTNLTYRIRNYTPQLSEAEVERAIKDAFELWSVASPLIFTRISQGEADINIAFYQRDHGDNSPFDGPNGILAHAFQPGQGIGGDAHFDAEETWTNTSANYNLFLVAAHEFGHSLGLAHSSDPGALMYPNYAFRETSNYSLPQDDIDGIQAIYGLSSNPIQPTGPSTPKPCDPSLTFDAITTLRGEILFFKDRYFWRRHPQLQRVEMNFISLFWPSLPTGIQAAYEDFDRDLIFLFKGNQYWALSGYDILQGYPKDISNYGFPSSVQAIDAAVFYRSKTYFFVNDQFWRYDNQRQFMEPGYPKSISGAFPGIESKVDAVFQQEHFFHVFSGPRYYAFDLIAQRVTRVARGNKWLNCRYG
T8 sequence (P08254 100-272 limits assumed): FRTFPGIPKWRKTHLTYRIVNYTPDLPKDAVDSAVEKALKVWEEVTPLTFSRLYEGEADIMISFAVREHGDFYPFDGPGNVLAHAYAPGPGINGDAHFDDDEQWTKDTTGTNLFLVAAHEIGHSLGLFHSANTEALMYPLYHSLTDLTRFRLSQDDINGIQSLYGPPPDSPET
T2 sequence (P14780 107-707 limits assumed): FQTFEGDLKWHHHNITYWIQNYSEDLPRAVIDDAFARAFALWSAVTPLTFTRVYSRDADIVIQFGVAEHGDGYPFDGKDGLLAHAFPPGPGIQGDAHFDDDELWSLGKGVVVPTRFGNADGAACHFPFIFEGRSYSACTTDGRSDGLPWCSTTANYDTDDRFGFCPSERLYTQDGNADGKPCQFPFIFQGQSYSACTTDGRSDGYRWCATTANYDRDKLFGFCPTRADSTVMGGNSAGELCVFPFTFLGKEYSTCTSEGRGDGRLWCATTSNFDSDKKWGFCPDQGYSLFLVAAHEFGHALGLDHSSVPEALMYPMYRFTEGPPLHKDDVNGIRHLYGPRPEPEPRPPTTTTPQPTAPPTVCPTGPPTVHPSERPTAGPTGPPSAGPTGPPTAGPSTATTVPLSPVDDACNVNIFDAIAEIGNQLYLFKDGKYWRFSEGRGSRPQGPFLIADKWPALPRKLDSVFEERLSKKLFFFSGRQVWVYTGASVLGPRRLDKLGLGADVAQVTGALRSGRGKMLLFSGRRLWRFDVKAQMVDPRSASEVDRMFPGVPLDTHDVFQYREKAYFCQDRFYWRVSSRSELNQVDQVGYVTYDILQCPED

Consider `Cc1cc(COc2ccc(S(=O)(=O)CC(C=C3CCSCC3)N(O)C=O)cc2)c2ccccc2n1` (stereo not shown) [Example I-17, N-Hydroxy-N-{2-[4-(2-methylquinolin-4-ylmethoxy)benzenesulfonyl]-1-(tetrahydrothiopyran-4-ylidenemethyl)ethyl}formamide], for which the IC50 – broadly, the concentration that gives 50% inhibition – in [1] was 4 µM; in [2] (setting [10]), 31 µM; in [3], 43 µM; in test [4] it was above 100 µM; in test [5], 50 µM; in test [6], 55 µM. Moreover, the values for the IC50 in [7], in test [8] and in test [9] (setting [10]) were 25 µM, 10 µM and 0.003 µM, respectively.
As to `Cc1cc(COc2ccc(S(=O)(=O)CC(N(O)C=O)C3(C)CCC(=O)CC3)cc2)c2ccccc2n1` (stereo not shown) [Example I-48], the IC50 in [1] is 1 µM; in [2], above 100 µM; in test [3], above 100 µM; in test [4] it was 18 µM; in test [5], above 100 µM; in test [6] it was 70 µM. The results for the IC50 in [7], in [8] and in [9] were 50 µM, 2.8 µM and 0.019 µM, respectively.
For the molecule `CC(=O)N1CCC(=CC(CS(=O)(=O)c2ccc(OCc3cc(C)nc4ccccc34)cc2)N(O)C=O)CC1` (stereo not shown) [Example I-41], the IC50 in test [1] is 3.7 µM; in [2] it was above 100 µM; in test [3] it was above 100 µM; in test [4], 50 µM; in [5] it was above 100 µM; in [6], 41 µM. Besides, the concentration for half-maximal inhibition (IC50) in [7] came out at 50 µM; in [8], 4.8 µM; in test [9] it was 0.0031 µM.
As for `Cc1cc(COc2ccc(S(=O)(=O)CC(c3ccccc3C)N(O)C=O)cc2)c2cc(F)ccc2n1` (stereo not shown) [Example I-79, N-{2-[4-(6-fluoro-2-methylquinolin-4-ylmethoxy)benzenesulfonyl]-1-o-tolylethyl}-N-hydroxyformamide], the half-maximal inhibitory concentration (IC50) in [1] is 6.2 µM; in test [2], 70 µM; in test [3], 68 µM; in test [4], 73 µM; in test [5], 46 µM; in test [6], 58 µM. In addition, the half-maximal inhibitory concentration (IC50) in test [7] amounted to 20 µM; in test [8], 2.9 µM; in [9], 0.015 µM.
With `COCC(=O)N1CCN(CC(CS(=O)(=O)c2ccc(OCc3cc(C)nc4ccccc34)cc2)N(O)C=O)CC1` (stereo not shown) [Example I-53], the IC50 in [1] is 0.4 µM; in test [2], above 100 µM; in test [3] it was above 100 µM; in test [4], 25 µM; in test [5], above 100 µM; in [6], 13 µM. The IC50 was determined as 40 µM in test [7], 0.6 µM in [8] and 0.01 µM in [9].
In the case of `O=CON=C1CCC(=CC(CS(=O)(=O)c2ccc(OCc3ccc4ccccc4n3)cc2)N(O)C=O)CC1` (stereo not shown) [Example I-85], the IC50 is 31 µM in test [1]; 56 µM in [2]; above 100 µM in [3]; 70 µM in test [4]; 60 µM in test [5]; 4.5 µM in test [6]. Besides, the IC50 in test [7] was determined as 22 µM; in test [8], 50 µM; in test [9], 0.36 µM.
Regarding `Cc1cc(COc2ccc(S(=O)(=O)CC(C=C3CCN(Cc4ccccc4)CC3)N(O)C=O)cc2)c2ccccc2n1` (stereo not shown) [Example I-45], the IC50 in test [1] amounted to 0.27 µM; in test [2], 40 µM; in test [3] it was 85 µM; in [4], 5 µM; in test [5] it was 9 µM; in [6], 1 µM. Also, the IC50 was determined as 2 µM in test [7], 0.26 µM in [8] and 0.005 µM in [9].
As for `Cc1cc(COc2ccc(S(=O)(=O)CC(CC3CCN(S(C)(=O)=O)CC3)N(O)C=O)cc2)c2ccccc2n1` (stereo not shown) [Example I-70], the IC50 in test [1] was 1.9 µM; in test [2], above 100 µM; in test [3] it was above 100 µM; in test [4], 22 µM; in test [5], 92 µM; in [6] it was 11 µM. In addition, the 50% inhibitory concentration (IC50) in test [7] was 30 µM; in [8], 1.3 µM; in [9] it was 0.011 µM.
Consider `Cc1cc(COc2ccc(S(=O)(=O)CC(CCc3cccnc3)N(O)C=O)cc2)c2ccccc2n1` (stereo not shown) [Example I-56], for which the IC50 came to 1.2 µM in [1]; 55 µM in test [2]; 70 µM in [3]; 7.2 µM in test [4]; 42 µM in [5]; 3.1 µM in test [6]. Also, the IC50 in test [7] turned out to be 6.4 µM; in [8], 1 µM; in test [9] it was 0.004 µM.
`COc1ccc(CCC(CS(=O)(=O)c2ccc(OCc3cc(C)nc4ccccc34)cc2)N(O)C=O)cc1` (stereo not shown) [Example I-35]: the concentration for half-maximal inhibition (IC50) in test [1] was found to be 6 µM; in test [2] it was 37 µM; in [3] it was 50 µM; in test [4], 35 µM; in test [5] it was 38 µM; in [6], 4.2 µM. Moreover, the IC50 was 7.8 µM in test [7], 10 µM in test [8] and 0.032 µM in [9].
Regarding `Cc1cc(COc2ccc(S(=O)(=O)CC(C=C3CCOCC3)N(O)C=O)cc2)c2ccccc2n1` (single isomer, unassigned) [Example I-34, N-hydroxy-N-{2-[4-(2-methylquinolin-4-ylmethoxy)benzenesulfonyl]-1-(tetrahydropyran-4-ylidenemethyl)ethyl}formamide], the IC50 in test [1] is 40 µM; in [2] (setting [10]), above 100 µM; in [3] (setting [10]), above 100 µM; in test [4], above 100 µM; in [5] it was above 100 µM; in test [6], above 100 µM. Further, the half-maximal inhibitory concentration (IC50) in test [7] and in test [8] was above 100 µM each time.
As to `Cc1cc(COc2ccc(S(=O)(=O)CC(C=C3CCOCC3)N(O)C=O)cc2)c2ccccc2n1` (stereo not shown) [Example I-9, N-Hydroxy-N-{2-[4-(2-methylquinolin-4-ylmethoxy)benzenesulfonyl]-1-(tetrahydropyran-4-ylidenemethyl)ethyl}formamide], the half-maximal inhibitory concentration (IC50) in [1] is 3 µM; in test [2] (setting [10]), 53 µM; in [3], above 100 µM; in [4], 37.5 µM; in [5] it was 70 µM; in test [6], 60 µM. In addition, the IC50 worked out at 25 µM in test [7] and 5.5 µM in test [8].
